Test results taken from the PolyMetriX glass transition set.
± gives the standard deviation of the reports.

Structure (SMILES)	glass transition temperature [°C]
*c1ccc(Oc2ccc(Oc3ccc(N4C(=O)C5CCC6C(=O)N(*)C(=O)C6C5C4=O)cc3)cc2)cc1 (repeat unit)	274.00
*Oc1ccc(NC(=O)Nc2ccccc2CCc2ccc(NC(=O)Nc3ccc(*)cc3)cc2)cc1 (repeat unit)	200.00
*CCC[Si](*)(c1ccc(C)cc1)c1ccc(C)cc1 (repeat unit)	38.00
*CC(*)C(=O)Oc1ccccc1C(=O)OC (repeat unit)	46.00
*CC(=O)NCC(=O)O* (repeat unit)	67.00
*CC(*)(C)C(=O)OCC(C)(C)C (repeat unit) [Poly(neopentyl methacrylate) ]	33 ± 3.7
*C(=O)Nc1ccc(-c2ccc(NC(=O)c3ccc4c(c3)C(=O)N(c3cccc(P(=O)(c5ccccc5)c5cccc(N6C(=O)c7ccc(*)cc7C6=O)c5)c3)C4=O)cc2)cc1 (repeat unit)	253.00
*C(C)C(*)C(=O)OC12CC3CC(CC(C3)C1)C2 (repeat unit)	236.50
*Sc1ccc(Sc2ccc(Sc3ccc4c(c3)C(=O)N(N3C(=O)c5cccc(*)c5C3=O)C4=O)cc2)cc1 (repeat unit)	242.00
*CCCCCCCCCCNC(=O)CCP(C)(=O)CCC(=O)N* (repeat unit)	45.50
*CC(O)CN(CC(O)CN(*)c1ccccc1)c1ccc(/N=N/c2ccc([N+](=O)[O-])cc2)cc1 (repeat unit)	70.00
*CC(*)c1ccc([Si](C)(C)OC(C)C)cc1 (repeat unit)	180.00
*Oc1ccc(/N=C/CCC/C=N/c2ccc(OC(=O)NC3CC(C)(C)CC(C)(CNC(*)=O)C3)cc2)cc1 (repeat unit)	66.00
*CC(*)c1ccccc1C(=O)Oc1ccccc1 (repeat unit)	124.00
*c1ccc(-c2cc(CCCCCC)c(-c3ccc(-c4ccc5ccc6ccc(*)nc6c5n4)cc3)cc2CCCCCC)cc1 (repeat unit)	190.00
*CC(*)OC(=O)C1CCCCC1 (repeat unit)	66.00
*CC1CCCC(CNC(=O)CCCCC(=O)N*)C1 (repeat unit)	107.00
*CC(*)(C)C(=O)OCc1ccccc1Cl (repeat unit)	54.10
*CC(*)c1cccc(OC(C)=O)c1 (repeat unit)	76.00
*CCCCCCCCCOC(=O)CCC(=O)O* (repeat unit)	31.00
*CC(*)(C(=O)OC)c1ccccc1 (repeat unit)	121.00
*Nc1ccc(C(C)(C)c2cccc(C(C)(C)c3ccc(Nc4ccc(C(=O)c5ccc(C(=O)c6ccc(*)cc6)cc5)cc4)cc3)c2)cc1 (repeat unit)	177.00
*CC(*)(C)C(=O)OCCCCCCCCCCCCCCC(=O)NC1OC(CO)C(OC2OC(CO)C(O)C(O)C2O)C(O)C1O (repeat unit)	133.00
*Oc1ccc(OC(=O)c2ccc(C(*)=O)cc2Oc2ccccc2)cc1 (repeat unit)	105.00

Structure (SMILES)	glass transition temperature [°C]
*c1nc2cc(S(=O)(=O)c3ccc4oc(C5CCC(*)CC5)nc4c3)ccc2o1 (repeat unit)	296.00
*CCCCCCCCCOC(=O)Nc1ccc(Cc2ccc(NC(=O)O*)cc2)cc1 (repeat unit)	72.00
*O[Si](C)(C)O[Si](C)(C)Oc1c(C)cc(-c2cc(C)c(*)c(C)c2)cc1C (repeat unit)	55.00
*Oc1ccc2c(c1)C(C)(c1ccc(OC(=O)c3ccc(C(*)=O)cc3)cc1)CC2(C)C (repeat unit)	252.50
*CC(COc1ccc(C(C)(C)c2ccc(O*)cc2)cc1)OC(C)=O (repeat unit)	60.00
*CC(*)OC(C)=O (repeat unit) [poly(vinyl acetate)]	40.92 ± 13
*Oc1cccc(OC(=O)c2ccc([Si](C)(C)c3ccc(C(*)=O)cc3)cc2)c1 (repeat unit)	134.00
*CC(*)C(=O)Oc1ccc(/N=N/c2ccc([N+](=O)[O-])cc2)cc1 (repeat unit)	134.00
*c1cccc(Cc2cccc(N3C(=O)c4ccc([Si](C)(C)O[Si](C)(C)O[Si](C)(C)c5ccc6c(c5)C(=O)N(*)C6=O)cc4C3=O)c2)c1 (repeat unit)	208.00
*CCCC(C)CN1C(=O)c2ccc(C(=O)Oc3ccc4cc(OC(=O)c5ccc6c(c5)C(=O)N(*)C6=O)ccc4c3)cc2C1=O (repeat unit)	130.00
*CC(*)c1ccc(C(=O)Cc2ccccc2)cc1 (repeat unit)	78.00
*CCCC(C)(C)CNC(=O)C(=O)N* (repeat unit)	109.00
*C(=O)Nc1cccc(NC(=O)/C=C/c2cccc(N3C(=O)c4ccc(*)cc4C3=O)c2)c1 (repeat unit)	257.50
*Oc1ccc(NC(=O)c2ccc3cc(C(=O)Nc4ccc(Oc5ccc(C6(c7ccc(*)cc7)CC7CCC6C7)cc5)cc4)ccc3c2)cc1 (repeat unit)	276.00
*c1c(C)cc(Cc2cc(C)c(N3C(=O)c4ccc(Oc5c(C)cc(-c6cc(C)c(Oc7ccc8c(c7)C(=O)N(*)C8=O)c(C)c6)cc5C)cc4C3=O)c(C)c2)cc1C (repeat unit)	420.00
*[Si](*)(CCCC)CCCCCC (repeat unit)	-40.00
*Oc1ccc(C(=O)c2cccc(NC(=O)c3cccc(C(=O)Nc4ccc(C(=O)c5ccc(*)cc5)cc4)c3)c2)cc1 (repeat unit)	204.00
*Oc1ccc(OC(=O)c2ccc(C(*)=O)cc2Oc2ccc3ccccc3c2)cc1 (repeat unit)	102.00
*CCC[Si](*)(C)C (repeat unit)	-55.00
*CC/C(C)=C(/*)C (repeat unit)	4.00
*c1cccc(P(=O)(c2cccc(-n3c(=O)c4cc5c(=O)n(*)c(=O)c5c(-c5ccc(C(F)(F)F)cc5)c4c3=O)c2)c2cc(C(F)(F)F)cc(C(F)(F)F)c2)c1 (repeat unit)	292.00
*Oc1ccc(S(=O)(=O)c2ccc(Oc3ccc(C4(c5ccc(*)cc5)CCCCC4)cc3)cc2)cc1 (repeat unit)	226.00
*/C=C/C1CC(*)C(C#N)C1 (repeat unit)	140.00
*CC(O)COC(=O)CCCCCCCCC(=O)OCC(O)COc1ccc(C(C)(C)c2ccc(O*)cc2)cc1 (repeat unit)	30.00

Structure (SMILES)	glass transition temperature [°C]
*CC(*)(C)C(=O)OCCCCCCOc1ccc(OC(=O)c2ccc(-c3ccc(OC)cc3)cc2)cc1 (repeat unit)	57.00
*OCCOC(=O)CCCC(=O)OCCOc1nc(-c2ccc(OC)cc2)nc(*)c1-c1ccc(OC)cc1 (repeat unit)	57.00
*C1OCCCC1C1C(=O)OC(=O)C1* (repeat unit)	210.00
*c1ccc(C(=O)OCCCCCCCCCOC(=O)c2ccc(-c3nnc(*)s3)cc2)cc1 (repeat unit)	72.00
*c1cc(CC(=O)OCC)c(*)s1 (repeat unit)	56.70
*Oc1ccc(S(=O)(=O)c2ccc(Oc3ccc(C(C)(C)c4ccc(*)cc4)cc3)c([N+](=O)[O-])c2)cc1[N+](=O)[O-] (repeat unit)	206.00
*c1ccc(-c2ccc(-c3ccc(-c4ccc(N(*)c5ccc(C)cc5)cc4)c4c(C)ccc(C)c34)c3c(C)ccc(C)c23)cc1 (repeat unit)	148.00
*Oc1cccc(OC(=O)c2ccc(Oc3ccc(C(*)=O)cc3)cc2)c1 (repeat unit)	159.00
*CC(*)(C)C(=O)OCCCCCCCCCCCCOc1ccc(C(=O)Oc2ccc(-c3cccc(OC(=O)c4ccc(OC(=O)c5ccc(OCCCCCCCCCCCC)cc5)cc4)c3)cc2)cc1 (repeat unit)	74.50
*CCCCCCOC(=O)OCCCCCOC(=O)OCCCCCCOc1ccc(C(=O)c2ccc(O*)cc2)cc1 (repeat unit)	-0.20
*Oc1c(Br)cc(C(C)(C)c2cc(Br)c(OC(*)=O)c(Br)c2)cc1Br (repeat unit)	228.50
*c1ccc(Oc2ccc(C(=O)c3ccc(Oc4ccc(N5C(=O)c6ccc(-c7ccc8c(c7)C(=O)N(*)C8=O)cc6C5=O)cc4)cc3)cc2)cc1 (repeat unit)	253.00
*Nc1ccc(*)cc1 (repeat unit)	75.30
*CCN(Cc1ccccc1)C(=O)S* (repeat unit)	32.00
*O[Si](*)(C)CCCCCCCCCCCOC(=O)c1cc(OC(=O)c2ccc(OCCOCCOCCOCCOCCOCCOCCOCCOC)cc2)ccc1OC(=O)c1ccc(OCCOCCOCCOCCOCCOCCOCCOCCOC)cc1 (repeat unit)	-56.00
*c1cccc(N2C(=O)c3cccc(Oc4ccc(-c5ccc(Oc6cccc7c6C(=O)N(*)C7=O)cc5)cc4)c3C2=O)c1 (repeat unit)	275.00
*CCCCCCCCCCOC(=O)NCc1ccc(CNC(=O)O*)cc1 (repeat unit)	49.00
*CC(*)(C)C(=O)OCC[N+](C)(C)CCCCCCC (repeat unit)	-44.00
*c1cccc(NC(=O)c2ccc(OCCOc3ccc(C(=O)Nc4ccc5[nH]c(*)nc5c4)cc3)cc2)c1 (repeat unit)	250.00
*CCCCCCNC(=O)c1ccc(C2(C)CC(C)(C)c3ccc(C(=O)N*)cc32)cc1 (repeat unit)	190.00
*Oc1cc(CCCCCCCCC)cc(OC(=O)c2cccc(C(*)=O)c2)c1 (repeat unit)	41.50
*Oc1ccc(S(=O)(=O)c2ccc(Oc3cc(C)c(C(c4cc(C(C)C)c(*)cc4C)c4ccccc4C(=O)O)cc3C(C)C)cc2)cc1 (repeat unit)	240.00
*C(=O)Nc1ccc(-c2ccc(NC(=O)c3ccc4c(c3)C(=O)N(c3ccc(Oc5ccc(N6C(=O)c7ccc(*)cc7C6=O)cc5)cc3)C4=O)cc2)cc1 (repeat unit)	315.00
*/C=C/C1CC(*)C2C(=O)N(CCCCCCCCC)C(=O)C12 (repeat unit)	52.00
